Source: patent publication US20230067910A1, “NOVEL COMPOUNDS FOR THE DIAGNOSIS, TREATMENT AND PREVENTION OF DISEASES ASSOCIATED WITH THE AGGREGATION OF ALPHA-SYNUCLEIN” (MODAG GMBH, priority 2019, published 2023)
Where two headings read alike, the source gives them in different places.

Columns and labels:
[1] = biological target: T1, alpha-synuclein (sonicated fibrils) (Homo sapiens, UniProt P37840); assay: Modified competition binding assay, protocol 3b, reference ligand [3H]-compound 2; settings: Table 5, reference ligand [3H]-compound 2 (1 nM)
T1 construct: made in house; host or cells: E. coli
Procedure: (§1) Alpha-synuclein and tau46 were purified from E. coli according to established protocols (Nuscher B, et al., J. Biol. Chem., 2004; 279(21):21966-75), Aβ1-42 was obtained from rPeptide, Watkinsville, Ga., USA. Fibrils were prepared by aggregation of recombinant protein via constant agitation. In detail, 70 μM of alpha-synuclein mixed with 100 mM NaCl in 50 mM Tris, pH 7.0+0.02% NaN3 were incubated at 1,400 rpm, 37° C. for 96 h. 10 μM of tau46 were incubated with 0.03 mg/ml heparin in 50 mM Tris, pH=7.0 at 1,000 rpm, 37° C. for 72 h. Aβ1-42 was solved in 20 mM NaPi, pH=8.0+0.2 mM EDTA+0.02% NaN3 (Deeg A A, et al., Biochim. Biophys. Acta, 2015; 1850(9): 1884-90; Goedert M, et al. Nature, 1996; 383(6600): 550-3).
For competition binding experiments, a fixed concentration of recombinant αSYN fibrils (sonicated, 15 nM/well) was incubated with 1 nM [^3H]-compound 1 or [3H]-compound 2 and decreasing concentrations of a serial dilution of non-labeled competitor (serial dilution 1:4 or 1:3.5 or 1:3 providing the concentration ranges of non-labeled competitor 1 μM-[…] 1 μM-4 nM or 1 μM-[…], respectively) in 30 mM Tris-HCl, 10% ethanol, 0.05% Tween20, pH 7.4 in a total volume of 200 μL/well. Plates were incubated for 4.5 hours at RT covered by removable sealing tape (PerkinElmer, Waltham, Mass., USA).
Filtration and readout were performed as described for saturation binding assays. [^3H]-labeled ligand binding [in CMP] was plotted against increasing competitor concentrations and data points were fitted using non-linear regression analysis to calculate the IC50 and Ki values (GraphPad Software, Inc., Version 7.03, La Jolla (Calif.), USA). In the competition binding assay with sonicated recombinant αSYN fibrils, the calculation of Ki values was done based on KD values of 0.6 nM and 0.2 nM for compound 1 and compound 2, respectively.
(§2) The fibril competition assay provides Ki values. Ki is a quantitative measure that represents the concentration of the non-radioactive tested compound (competitor ligand) required to replace 50% of a reference compound, in this case [H]-compound 1 (1 nM) or [H]-compound 2 (1 nM), which is bound to the target structures (1 nM), in our case recombinant alpha-synuclein and tau46 fibrils. This assay is suitable for a screening of non-radioactive ligands.

[2] = test system: H4 cells overexpressing alpha-synuclein hemi-Venus fusion constructs (V1S+SV2); assay: Cellular model of aggregated alpha-synuclein-dependent toxicity, V1S+SV2 H4 cells; format: cell-based; settings: 10 μM compound, 100 μM FeCl3, 0.75% DMSO, 48 h; for inhibition at 10 µM: read-out: Change in fraction of condensed nuclei (rel. to DMSO control) [%]
Procedure: (§3) To identify potential therapeutically useful effects, compounds were tested in two cellular models of aggregated alpha-synuclein-dependent toxicity in H4 cells. These cellular models allow for the inducible overexpression of alpha-synuclein hemi-Venus fusion constructs (V1S+SV2) or full-length alpha-synuclein (the model is described in detail in: Bartels M, Weckbecker D, Kuhn P H, Ryazanov S, Leonov A, Griesinger C, Lichtenthaler S F, Bötzel K, Giese A: Iron-mediated aggregation and toxicity in a novel neuronal cell culture model with inducible alpha-synuclein expression, Sci. Rep. 2019 Jun. 24; 9(1):9100). Moreover, addition of DMSO and FeCl3 promotes the aggregation of alpha-synuclein which is associated with an increase in cytotoxicity. The cell culture assay uses these effects by determining the change in the number of cells and the change in the percentage of condensed nuclei, which is indicative of apoptosis, in order to obtain information on which compounds show the most promising effects and thus might be therapeutically useful.
(§4) In these experiments, cells were incubated with 100 μM FeCl3 and 0.75% DMSO in the presence of 10 μM anle138c as a positive control, compounds 1 to 19 (10 μM), or DMSO as a negative control. After 48 h, the cells were imaged with an OPERA high-throughput imaging system and analyzed using Acapella software (Perkin Elmer). […] A reduction in the fraction of condensed nuclei (in the absence of a strong reduction in cell number) is indicative of a beneficial therapeutic effect.

[3] = test system: H4 cells overexpressing full-length alpha-synuclein; assay: Cellular model of aggregated alpha-synuclein-dependent toxicity, full-length alpha-synuclein H4 cells; format: cell-based; settings: 10 μM compound, 100 μM FeCl3, 0.75% DMSO, 48 h; for inhibition at 10 µM: read-out: Change in fraction of condensed nuclei (rel. to DMSO control) [%]
Procedure: as §3, §4

[4] = biological target: T2, alpha-synuclein (fibrils) (Homo sapiens, UniProt P37840); assay: Competition binding assay, protocol 3a, reference ligand [3H]-compound 1, alpha-synuclein fibrils; settings: reference ligand [3H]-compound 1 (1 nM)
T2 construct: made in house; host or cells: E. coli
Procedure: as §1
A fixed concentration of sonicated human recombinant αSYN (200 nM/well) or tau46 (208 nM/well) fibrils diluted in phosphate buffered saline (PBS) were incubated in low binding plates (96 well micro test plate, Ratiolab GmbH, Dreieich, Germany) together with 1 nM [^3H]-compound 1 and 1:4 serial dilutions of the cold compound of interest starting from 1 μM diluted in 50 mM Tris-base, 10% EtOH, 0.05% Tween20, pH 7.4. For the calculation of Ki values the KD value of compound 1 toward sonicated human recombinant αSYN fibrils was set to 3 nM.
Assay plates were incubated under agitation at 37° C. for 2 h covered by plastic foil (Resealable tape, PerkinElmer, Waltham, Mass., USA). Prior to harvesting, a filter (Printed filtermat B, PerkinElmer, Waltham, Mass., USA) was incubated with 5 mg/mL polyethylenimine (PEI, Poly(ethyleneimine) solution, Sigma Aldrich Chemie GmbH, Taufkirchen, Germany) at 4° C. for 30 min. After incubation, bound and free ligands were separated by vacuum filtration using a harvester (Filtermate harvester, PerkinElmer, Waltham, Mass., USA). The filter was washed three times with buffer cooled to 4° C. and subsequently dried in the microwave for 2 min at medium power. The filter was sealed in a plastic bag (Sample bag for MicroBeta®, PerkinElmer, Waltham, Mass., USA) together with added scintillator (BETAPLATE SCINT, PerkinElmer, Waltham, Mass., USA). Accumulation of tritium was counted in a liquid scintillation counter (Wallac MicroBeta® TriLux, 1450 LSC & Luminescence Counter, PerkinElmer, Waltham, Mass., USA) immediately. Radioactivity was plotted against the increasing tritium-labeled compound or cold compound concentrations. Data points were fitted using nonlinear regression analysis in GraphPad Prism (GraphPad Software, Inc., Version 7.03, La Jolla, Calif., USA).
as §2

[5] = biological target: T1, alpha-synuclein (sonicated fibrils); assay: Modified competition binding assay, protocol 3b, reference ligand [3H]-compound 1; settings: reference ligand [3H]-compound 1 (1 nM)
Procedure: Fibrils were prepared by aggregation of recombinant protein via constant agitation. In detail, 70 μM of alpha-synuclein mixed with 100 mM NaCl in 50 mM Tris, pH 7.0+0.02% NaN3 were incubated at 1,400 rpm, 37° C. for 96 h. 10 μM of tau46 were incubated with 0.03 mg/ml heparin in 50 mM Tris, pH=7.0 at 1,000 rpm, 37° C. for 72 h.
Plates were incubated for 4.5 hours at RT covered by removable sealing tape (PerkinElmer, Waltham, Mass., USA).
Filtration and readout were performed as described for saturation binding assays.
The fibril competition assay provides Ki values. […] This assay is suitable for a screening of non-radioactive ligands.

[6] = Experiment A, read-out: Ki (nM) alpha-synuclein (fibrils)
[7] = Experiment B, read-out: Ki (nM) alpha-synuclein (sonicated fibrils)
[8] = Table 4b, read-out: Ki (nM) alpha-synuclein (sonicated fibrils)
[9] = Table 6 comparison series, read-out: Ki (nM), sonicated alpha-synuclein fibrils

SMILES | Ki [1] | Ki [4, 6] | Ki [4, 7] | Ki [5, 8] | Ki [5, 9] | Change in cell number (rel. to DMSO control) [%] [2] | inhibition at 10 µM [2] | Change in cell number (rel. to DMSO control) [%] [3] | inhibition at 10 µM [3]
CN(C)c1ncc(-c2cc(-c3cccc(Br)c3)[nH]n2)cn1 [Compound 5, 5-[5-(3-bromophenyl)-1H-pyrazol-3-yl]-N,N-dimethylpyrimidin-2-amine] | 13 nM | 27 nM | > 60 nM | – | – | −12.4% | 27.3% | −14.6% | 34.2%
CN(C)c1ncc(-c2cc(-c3ccnc(Br)c3)[nH]n2)cn1 [Compound 6, 5-[5-(2-bromopyridin-4-yl)-1H-pyrazol-3-yl]-N,N-dimethylpyrimidin-2-amine] | 8.9 nM | 24 nM | > 300 nM | – | – | −34.0% | -53.6% | −31.0% | -5.4%
Nc1ccc(-c2cc(-c3ccnc(Br)c3)[nH]n2)cc1 [Compound 7, 4-[5-(2-bromopyridin-4-yl)-1H-pyrazol-3-yl]aniline] | – | – | – | – | – | −30.8% | 46.1% | −37.8% | 62.5%
CN(C)c1ncc(-c2cc(-c3ccnc(F)c3)[nH]n2)cn1 [Compound 8, 5-[5-(2-fluoropyridin-4-yl)-1H-pyrazol-3-yl]-N,N-dimethylpyrimidin-2-amine] | 9.9 nM | 43 nM | – | – | – | −4.5% | -14.2% | −5.7% | -10.7%
Fc1cccc(-c2cc(-c3ccc4c(c3)OCO4)n[nH]2)n1 [Compound 11, 2-[3-(1,3-benzodioxol-5-yl)-1H-pyrazol-5-yl]-6-fluoropyridine] | 7.4 nM | – | – | – | – | −17.4% | -123% | −20.0% | -13.7%
Fc1cncc(-c2cc(-c3ccc4c(c3)OCO4)n[nH]2)c1 [Compound 13, 3-[3-(1,3-benzodioxol-5-yl)-1H-pyrazol-5-yl]-5-fluoropyridine] | 189 nM | – | – | – | – | −6.1% | -46% | −18.1% | 55.5%
Clc1cc(-c2cc(-c3ccc4c(c3)OCO4)n[nH]2)ccn1 [Compound 14, 4-[3-(1,3-benzodioxol-5-yl)-1H-pyrazol-5-yl]-2-chloropyridine] | 1.3 nM | – | – | – | – | −21.9% | -61% | −32.0% | 47.3%
Brc1ccnc(-c2cc(-c3ccc4c(c3)OCO4)n[nH]2)c1 [Compound 16, 2-[3-(1,3-benzodioxol-5-yl)-1H-pyrazol-5-yl]-4-bromopyridine] | 4.7 nM | – | – | 5.2 nM | – | −40.2% | -56.8% | −47.1% | -0.8%
Cn1nc(-c2ccnc(Br)c2)cc1-c1ccc2c(c1)OCO2 [Compound 19, 4-[5-(1,3-benzodioxol-5-yl)-1-methyl-1H-pyrazol-3-yl]-2-bromopyridine] | – | – | – | – | – | −5.7% | -3.2% | −30.3% | 13.2%
Brc1cccc(-c2cc(-c3cc4c(cn3)OCO4)n[nH]2)c1 [Compound 20, 6-[3-(3-bromophenyl)-1H-pyrazol-5-yl]-1,3-dioxolo[4,5-c]pyridine] | 5.5 nM | – | – | 3.1 nM | – | – | – | – | –
CN(C)c1ccc(-c2cc(-c3cccc(Br)c3)[nH]n2)cc1 [Compound 65, reference compound] | – | – | – | – | 1.9 nM | – | – | – | –

Second part, led by results:

Ki [1] | Ki [4, 6] | Ki [4, 7] | Ki [5, 8] | Ki [5, 9] | SMILES | Change in cell number (rel. to DMSO control) [%] [2] | inhibition at 10 µM [2] | Change in cell number (rel. to DMSO control) [%] [3] | inhibition at 10 µM [3]
6.6 nM | – | – | 6.7 nM | – | Brc1cccc(-c2cc(-c3ccc4c(c3)OCO4)n[nH]2)n1 [Compound 15, 2-[3-(1,3-benzodioxol-5-yl)-1H-pyrazol-5-yl]-6-bromopyridine] | −11.3% | -23.1% | −11.2% | -20.3%
3.3 nM | – | – | 2.6 nM | – | CNc1ccc(-c2cc(-c3cncc(Br)c3)[nH]n2)cc1 [Compound 56, 4-[5-(5-bromopyridin-3-yl)-1H-pyrazol-3-yl]-N-methylaniline] | – | – | – | –
2.8 nM | – | – | 3.3 nM | – | CNc1ccc(-c2cc(-c3cc(Br)ccn3)[nH]n2)cc1 [Compound 57, 4-[5-(4-bromopyridin-2-yl)-1H-pyrazol-3-yl]-N-methylaniline] | – | – | – | –
5 nM | – | – | 5.1 nM | – | CNc1ccc(-c2cc(-c3cccc(Br)n3)[nH]n2)cc1 [Compound 58, 4-[5-(6-bromopyridin-2-yl)-1H-pyrazol-3-yl]-N-methylaniline] | – | – | – | –
– | – | – | – | 3.4 nM | CNc1ccc(-c2cc(-c3cccc(Br)c3)[nH]n2)cc1 [Compound 64, reference compound] | – | – | – | –
